Measurements as given in US9150589B2, “Polymorphous forms III and IV of N-benzoyl—staurosporine” (NOVARTIS AG, priority 2009, dated 2015).

Test: Thermal decomposition on heating under nitrogen atmosphere
Format: physicochemical
Conditions: heating rate of 20K/min under nitrogen atmosphere
Protocol: The crystalline form III decomposes above 270° C., when heated with a heating rate of 20K/min under nitrogen atmosphere.
The crystalline form IV decomposes at about 270° C. when heated at 20K/min under nitrogen atmosphere.

Row | decomposition temperature | Structure (SMILES)
1 | above 270 °C | CO[C@@H]1[C@H](N(C)C(=O)c2ccccc2)C[C@H]2O[C@]1(C)n1c3ccccc3c3c4c(c5c6ccccc6n2c5c31)C(=O)NC4 [crystalline form III, N-[(9S,10R,11R,13R)-2,3,10,11,12,13-hexahydro-10-methoxy-9-methyl-1-oxo-9,13-epoxy-1H,9H-diindolo[1,2,3-gh:3′,2′,1′-lm]pyrrolo[3,4-j][1,7]benzodiazonin-11-yl]-N-methylbenzamide]
2 | about 270 °C | CO[C@@H]1[C@H](N(C)C(=O)c2ccccc2)C[C@H]2O[C@]1(C)n1c3ccccc3c3c4c(c5c6ccccc6n2c5c31)C(=O)NC4 [crystalline form IV, N-[(9S,10R,11R,13R)-2,3,10,11,12,13-hexahydro-10-methoxy-9-methyl-1-oxo-9,13-epoxy-1H,9H-diindolo[1,2,3-gh:3′,2′,1′-lm]pyrrolo[3,4-j][1,7]benzodiazonin-11-yl]-N-methylbenzamide]
